The target of assay [1] is T1, fibrin (in vitro human plasma clot) (Homo sapiens, UniProt P02671+P02675+P02679).
T1 construct: about 400 μl of human plasma containing the radiolabelled substrate; from tissue; host or cells: human plasma, clotted in vitro with added thrombin and calcium chloride
T1 sequence (P02671 20-644 isoform P02671-2 limits assumed): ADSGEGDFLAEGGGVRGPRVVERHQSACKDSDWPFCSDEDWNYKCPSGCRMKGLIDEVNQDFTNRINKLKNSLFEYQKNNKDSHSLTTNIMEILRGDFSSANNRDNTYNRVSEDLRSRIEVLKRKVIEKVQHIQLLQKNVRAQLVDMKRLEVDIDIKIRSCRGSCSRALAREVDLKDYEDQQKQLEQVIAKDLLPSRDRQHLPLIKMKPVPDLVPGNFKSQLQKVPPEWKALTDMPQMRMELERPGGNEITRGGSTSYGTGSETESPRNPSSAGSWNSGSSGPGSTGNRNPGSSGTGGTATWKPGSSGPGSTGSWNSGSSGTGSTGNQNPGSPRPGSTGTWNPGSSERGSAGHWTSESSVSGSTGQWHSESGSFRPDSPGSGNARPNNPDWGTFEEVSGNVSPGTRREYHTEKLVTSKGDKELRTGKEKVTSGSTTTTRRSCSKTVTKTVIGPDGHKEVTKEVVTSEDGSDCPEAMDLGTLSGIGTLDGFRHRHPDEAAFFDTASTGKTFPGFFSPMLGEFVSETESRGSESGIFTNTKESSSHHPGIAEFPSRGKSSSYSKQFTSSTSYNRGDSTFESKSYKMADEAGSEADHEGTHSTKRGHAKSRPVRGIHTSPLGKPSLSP
T1 sequence (P02675 45-491 limits assumed): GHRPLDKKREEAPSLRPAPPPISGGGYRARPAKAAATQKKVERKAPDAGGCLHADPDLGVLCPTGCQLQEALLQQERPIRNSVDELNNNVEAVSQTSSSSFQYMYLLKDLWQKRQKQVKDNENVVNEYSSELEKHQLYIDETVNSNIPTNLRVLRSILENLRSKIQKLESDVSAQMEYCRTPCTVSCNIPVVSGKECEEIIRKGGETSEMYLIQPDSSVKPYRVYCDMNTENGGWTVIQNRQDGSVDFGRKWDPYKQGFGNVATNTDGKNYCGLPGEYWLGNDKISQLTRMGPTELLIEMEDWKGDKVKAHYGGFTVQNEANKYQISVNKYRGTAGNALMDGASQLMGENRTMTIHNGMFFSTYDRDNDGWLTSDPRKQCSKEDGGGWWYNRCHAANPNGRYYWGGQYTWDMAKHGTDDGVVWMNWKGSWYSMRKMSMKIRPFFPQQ
T1 sequence (P02679 27-437 isoform P02679-2 limits assumed): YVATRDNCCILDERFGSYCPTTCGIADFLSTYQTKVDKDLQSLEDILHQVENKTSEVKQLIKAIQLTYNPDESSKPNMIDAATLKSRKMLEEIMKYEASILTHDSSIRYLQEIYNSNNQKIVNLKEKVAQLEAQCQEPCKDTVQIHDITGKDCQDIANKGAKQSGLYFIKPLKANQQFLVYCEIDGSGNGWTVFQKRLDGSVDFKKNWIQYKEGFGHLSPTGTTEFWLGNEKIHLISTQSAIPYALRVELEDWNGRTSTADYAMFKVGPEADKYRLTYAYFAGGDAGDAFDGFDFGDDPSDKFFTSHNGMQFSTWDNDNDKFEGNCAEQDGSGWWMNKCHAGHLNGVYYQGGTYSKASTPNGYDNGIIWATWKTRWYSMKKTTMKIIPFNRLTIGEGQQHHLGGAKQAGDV
Briefly: Incorporation into human plasma clots in vitro. It counts as biochemical. The settings on record: for % specific uptake: % retained (with thrombin) - % retained (no thrombin); for % retained (no thrombin): control without thrombin and calcium chloride (non-specific binding); for % retained (with thrombin): human plasma clot, 60 minutes, ca. 20° C. Here is the method:
Incorporation of radiolabelled substrates into fibrin was investigated by induction of an in vitro human plasma clot in the following manner. To a siliconised 5 ml glass vial was added, (a) 800 μl of Tris(hydroxymethyl)aminomethane buffered saline pH 7.5 containing calcium chloride (50 mM Tris, 150 mM sodium chloride, 4 mM calcium chloride.), (b) about 40 μl of physiological salt solution containing 100 units of thrombin per ml, (c) about 400 μl of human plasma containing the radiolabelled substrate at a concentration of typically 10 kBq/ml. To aid induction of clot a roughened glass rod was added to the reaction vial. Control vials were prepared similarly but with the omission of thrombin and calcium chloride.
After incubation of the test solution at ambient laboratory temperature (ca. 20° C.) for 60 minutes the reaction was discontinued with the addition of about 400 μl of a cold solution of 33.5 mM ethylenediaminetetra-acetic acid disodium salt. Clots were separated from serum by vacuum filtration onto […] nitrocellulose filters (pre-soaked in 1.5% BSA/tris(hydroxymethyl)aminoethae buffered saline pH 7.5 containing 0.1% Tween 20) and washed with about 2×10 ml of tris(hydroxymethyl)aminomethane buffered saline pH 7.5 containing Tween 20 to a final concentration of 0.1% v/v. The proportion of total radioactivity was calculated by counting in suitable detection apparatus.
The fraction of radioactivity retained on the filter, after subtraction of the non-specific binding determined from the control, is a measure of incorporation into the filtered clots.

Assay [2] is described as follows: Incorporation into clots induced in a rat model (rat inferior vena cava model). It counts as in vivo, rat (Male Wistar). The note with it: for % id/g (clot) / Rel. Conc. (cpm/g of clot by dose/g animal): sacrificed after 60 min. Here is the method:
The rats (Male Wistar, 250–350 g) were anaesthetised with 15% urethane. After laparotomy, the vena cava was isolated and freed of surrounding fat tissue. […] The compounds were injected 5 min (fresh clot) and 60 min (aged clot) post-induction. After 60 min the animals were sacrificed and the clot removed, weighed and counted. Other tissues e.g. blood, lung, heart, were also dissected and counted. The uptake of tracer into the clot was determined as the relative concentration (cpm/g of clot by dose/g animal) and clot to background tissue.

The mark [3] stands for this setting: Aged Clots: injected 60 min post-induction.
[4] abbreviates: Fresh Clots: injected 5 min post-induction.

For “Ac-NQEQVSP(I-Y)TLLKG-Pn216 [^99mTc-Cmpd 22]”, in assay [1], the “% specific uptake” value is 58.7%, the “% retained (no thrombin)” value stood at 0.3% and the “% retained (with thrombin)” value was 59.0%. Besides, in assay [2] (Aged Clots), the Clot/blood came out at 11, the Clot/heart is 3, the Clot/liver worked out at 4 and the Clot/lung came out at 1. In assay [2] (setting [3]), the “% id/g (clot)” value was 6.9 ± 2.5 % id/g and the “Rel. Conc. (cpm/g of clot by dose/g animal)” value came to 22.7 ± 7.4. In addition, in assay [2] (Fresh Clots), the Clot/blood came to 11, the Clot/heart is listed as 28, the Clot/liver came out at 25 and the Clot/lung turned out to be 13. Also, in assay [2] (setting [4]), the “% id/g (clot)” value worked out at 3.8 ± 1.6 % id/g and the “Rel. Conc. (cpm/g of clot by dose/g animal)” value is given as 13.0 ± 5.5.
On to “Ac-NQEQVSP(pBr-F)TLLKG-Pn216 [^99mTc-Cmpd 21]”, for which, in assay [1], the “% specific uptake” value was 60.1%, the “% retained (no thrombin)” value is 0.5% and the “% retained (with thrombin)” value was 60.6%. Moreover, in assay [2] (Aged Clots), the Clot/blood is listed as 31, the Clot/heart turned out to be 32, the Clot/liver is 31 and the Clot/lung stood at 13. Besides, in assay [2] (setting [3]), the “% id/g (clot)” value is recorded as 2.7 ± 2.3 % id/g and the “Rel. Conc. (cpm/g of clot by dose/g animal)” value worked out at 8.5 ± 6.8. In assay [2] (Fresh Clots), the Clot/blood is recorded as 11, the Clot/heart stood at 28, the Clot/liver stood at 13 and the Clot/lung worked out at 16. In assay [2] (setting [4]), the “% id/g (clot)” value was 2.3 ± 1.3 % id/g and the “Rel. Conc. (cpm/g of clot by dose/g animal)” value amounted to 7.4 ± 4.0.
Consider “Ac-NQEQVSP-Nal(2)-TLLKG-Pn216 [^99mTc-Cmpd 20]”, for which, in assay [1], the “% specific uptake” value is 62.4%, the “% retained (no thrombin)” value worked out at 2.6% and the “% retained (with thrombin)” value was 65.0%. In assay [2] (Aged Clots), this substance showed a Clot/blood of 10, a Clot/heart of 36, a Clot/liver of 23 and a Clot/lung of 14. Further, in assay [2] (setting [3]), the “% id/g (clot)” value stood at 1.7 ± 0.5 % id/g and the “Rel. Conc. (cpm/g of clot by dose/g animal)” value amounted to 4.9 ± 1.4. Besides, in assay [2] (Fresh Clots), the Clot/blood is reported as 12, the Clot/heart was found to be 30, the Clot/liver worked out at 18 and the Clot/lung came out at 11. Further, in assay [2] (setting [4]), the “% id/g (clot)” value is given as 2.3 ± 0.6 % id/g and the “Rel. Conc. (cpm/g of clot by dose/g animal)” value worked out at 6.5 ± 1.3.
Regarding “Ac-NQEQVSPLTLLKG-Pn216 (also: 99mTc complex) [^99mTc-Cmpd 19]”, in assay [1], the “% specific uptake” value worked out at 48.0%, the “% retained (no thrombin)” value is reported as 0.2% and the “% retained (with thrombin)” value turned out to be 48.2%. In assay [2] (Aged Clots), this substance showed a Clot/blood of 14, a Clot/heart of 13, a Clot/liver of 6 and a Clot/lung of 5. In assay [2] (setting [3]), the “% id/g (clot)” value was 3.2 ± 2.3 % id/g and the “Rel. Conc. (cpm/g of clot by dose/g animal)” value is reported as 9.1 ± 7.1. In assay [2] (Fresh Clots), this substance gave a Clot/blood of 3, a Clot/heart of 29, a Clot/liver of 17 and a Clot/lung of 7. Also, in assay [2] (setting [4]), the “% id/g (clot)” value is given as 2.5 ± 0.3 % id/g and the “Rel. Conc. (cpm/g of clot by dose/g animal)” value was 7.1 ± 1.2.
For “Ac-NQEQVSPYTLL(D-K)G-Pn216 [^99mTc-Cmpd 28]”, in assay [1], the “% specific uptake” value amounted to 41.9%, the “% retained (no thrombin)” value came to 0.2% and the “% retained (with thrombin)” value was 42.1%. In assay [2] (Aged Clots), this substance displayed a Clot/blood of 17, a Clot/heart of 3, a Clot/liver of 1 and a Clot/lung of 2. Besides, in assay [2] (setting [3]), the “% id/g (clot)” value was determined as 4.5 ± 1.1 % id/g and the “Rel. Conc. (cpm/g of clot by dose/g animal)” value was 13.1 ± 3.4. In assay [2] (Fresh Clots), this substance showed a Clot/blood of 13, a Clot/heart of 31, a Clot/liver of 35 and a Clot/lung of 19. For the same substance, in assay [2] (setting [4]), the “% id/g (clot)” value amounted to 3.5 ± 2.0 % id/g and the “Rel. Conc. (cpm/g of clot by dose/g animal)” value was found to be 9.7 ± 5.0.
Turning to “Ac-NQEQVSPYTLLKG-(PEG)10k-Pn216 (Ac-NQEQVSPYTLLKG-{PEG 10k-Pn216}; also: 99mTc complex) [^99mTc-Cmpd 41]”, in assay [1], the “% specific uptake” value worked out at 37.4%, the “% retained (no thrombin)” value was 7.1% and the “% retained (with thrombin)” value is listed as 44.5%. Besides, in assay [2] (Aged Clots), the Clot/blood came to 1, the Clot/heart is on record as 13, the Clot/liver was determined as 4 and the Clot/lung is 6. Besides, in assay [2] (setting [3]), the “% id/g (clot)” value is listed as 0.4 ± 0.1 % id/g and the “Rel. Conc. (cpm/g of clot by dose/g animal)” value stood at 1.1 ± 0.3. In assay [2] (Fresh Clots), the Clot/blood was 3, the Clot/heart was 6, the Clot/liver is listed as 8 and the Clot/lung came out at 4. In assay [2] (setting [4]), the “% id/g (clot)” value stood at 0.7 ± 0.1 % id/g and the “Rel. Conc. (cpm/g of clot by dose/g animal)” value was determined as 2.2 ± 0.3.
For Ac-NQEQVSPYTLLKG-NH2 [^123I-Cmpd 2], in assay [1], the “% specific uptake” value was 38.4%, the “% retained (no thrombin)” value turned out to be 0.2% and the “% retained (with thrombin)” value worked out at 38.6%. Moreover, in assay [2] (Aged Clots), the Clot/blood amounted to 24, the Clot/heart was determined as 23, the Clot/liver amounted to 20 and the Clot/lung stood at 12. In addition, in assay [2] (setting [3]), the “% id/g (clot)” value is recorded as 5.5 ± 1.7 % id/g and the “Rel. Conc. (cpm/g of clot by dose/g animal)” value was 14.5 ± 3.9. In assay [2] (Fresh Clots), this substance returned a Clot/blood of 7, a Clot/heart of 19, a Clot/liver of 21 and a Clot/lung of 10. Besides, in assay [2] (setting [4]), the “% id/g (clot)” value stood at 4.9 ± 0.8 % id/g and the “Rel. Conc. (cpm/g of clot by dose/g animal)” value is reported as 14.5 ± 2.2.
As for “Ac-NQQQVSPYTLLKG-Pn216 (also: 99mTc complex) [^99mTc-Cmpd 15]”, in assay [1], the “% specific uptake” value is recorded as 55.2%, the “% retained (no thrombin)” value stood at 0.4% and the “% retained (with thrombin)” value is recorded as 55.6%. In assay [2] (Aged Clots), this substance displayed a Clot/blood of 3, a Clot/heart of 1 and a Clot/lung of 0.6. For the same substance, in assay [2] (setting [3]), the “% id/g (clot)” value came out at 3.4 ± 0.6 % id/g and the “Rel. Conc. (cpm/g of clot by dose/g animal)” value worked out at 7.6 ± 1.6. Also, in assay [2] (Fresh Clots), the Clot/blood is 4, the Clot/heart came out at 12, the Clot/liver came out at 11 and the Clot/lung amounted to 6. Besides, in assay [2] (setting [4]), the “% id/g (clot)” value is listed as 3.6 ± 1.0 % id/g and the “Rel. Conc. (cpm/g of clot by dose/g animal)” value is 8.3 ± 2.2.
